Experimental findings from US20080050452A1, “METAL-CONTAINING FORMULATIONS AND METHODS OF USE” (priority 2006, published 2008) are described below.

For this experiment, the system named is Staph. aureus. The experiment is described as follows: Minimal bactericidal concentration (MBC) assay. The format is cell-based, Staphylococcus aureus. Here is the method:
Minimal bactericidal concentration (MBC) assay—Overnight-grown MIC plates, prepared as described in Example 16, were evaluated to determine the MIC. Culture was then sampled from wells at and near the MIC using sterile inoculating loops, and transferred to fresh MHA plates to determine if viable bacteria remained. […] The MBC was determined as the well in the MIC plate which contained the lowest concentration of silver yielding no bacterial growth on the MHA plate.

For the molecule `O=[N+]([O-])[O-].[Ag+]` [AgNO3, silver nitrate], the MBC turned out to be 6 parts silver per million (Staph. aureus ATCC type strain 6538); 6 parts silver per million (Staph. aureus ATCC type strain 700699); 11 parts silver per million (Staph. aureus isolate NP101); 6 parts silver per million (Staph. aureus isolate NP102); 6 parts silver per million (Staph. aureus isolate NP103).
